Results from US20100138957A1 (priority 2007, published 2010).

Tested on: Xylella fastidiosa
Conditions: in vivo

For “MAKWKLFKKIGIGFKKAAHVGKAALTK [B-passerin]”, the PD resistance index was “higher than that of tolerant control plants” and the “resistance to X. fastidiosa conferred in transgenic grape plants” value was “significantly higher level of resistance”.
